In patent US6960588B1, “Tryptase inhibitors” (Altana Pharma AG, priority 1999, dated 2005):
Structures can show the parent of a compound that is named as a salt.

Molecular target: human tryptase
Test: Inhibition of human tryptase (apparent dissociation constant, chromogenic substrate tos-Gly-Pro-arg-pNA)
Format: biochemical
Details: apparent dissociation constant in presence of substrate; heparin 0.1–50 μg/ml; equilibrium conditions; read-out: Kiapp
Excerpt: The documented pathophysiological effects of mast cell tryptase are caused directly by the enzymatic activity of the protease. Accordingly, they are reduced or blocked by inhibitors which inhibit the enzymatic activity of the tryptase. A suitable measure for the affinity of a reversible inhibitor to the target protease is the equilibrium dissociation constant Ki of the enzyme-inhibitor complex. This Ki value can be determined via the effect of the inhibitor on the tryptase-induced cleavage of a chromogenic peptide-p-nitroanilide substrate or a fluorogenic peptide-aminomethylcoumarin substrate.
The dissociation constants for the tryptase-inhibitor complexes are determined under equilibrium conditions in accordance with the general proposals of Bieth (Bieth J G, Pathophysiological Interpretation of kinetic constants of protease inhibitors, Bull. Europ. Physiopath. Resp. 16:183–195, 1980) and the methods of Sommerhoff et al. (Sommerhoff C P et al., A Kazal-type inhibitor of human mast cell tryptase: Isolation from the medical leech Hirudo medicinalis, characterization, and sequence analysis, Biol. Chem. Hoppe-Seyler 375: 685–694, 1994).
Human tryptase is isolated from lung tissue or prepared recombinantly; the specific activity of the protease, determined by titration, is usually greater than 85% of the theoretical value. In the presence of heparin (0.1–50 μg/ml) for stabilizing the protease, constant amounts of the tryptase are incubated with increasing amounts of the inhibitors. After an equilibrium between the reaction partners has formed, the remaining enzyme activity after addition of the peptide-p-nitroanilide substrate tos-Gly-Pro-argpNA is determined and the cleavage of the latter is monitored at 405 nm for 3 min. Alternatively, the remaining enzymatic activity can also be determined using fluorogenic substrates. The apparent dissociation constants Kiapp (i.e. in the presence of substrate) are subsequently determined by adapting the enzyme rates to the general equation for reversible inhibitors (Morrison J F, Kinetics of the reversible inhibition of enzyme-catalyzed reactions by tight-binding inhibitors, Biochim. Biophys. Acta 185, 269–286, 1969) using non-linear regression: V1/V0=1−{Et+It+Kiapp−[(Et+It+Kiapp)^2−4EtIt]^1/2}/2Et V1 and V0 are the rates in the presence and absence, respectively, of the inhibitor, and Et and It are the tryptase and inhibitor concentrations, respectively.
The apparent dissociation constants determined for the compounds according to the invention are shown in Table A below, where the numbers of the compounds correspond to the numbers of the compounds in the examples.

SMILES | Ki [nM]
NCc1ccc(CNC(=O)N2CCN(C(=O)OCC#Cc3ccccc3C#CCOC(=O)N3CCN(C(=O)NCc4ccc(CN)cc4)CC3)CC2)cc1 [Compound 4, 1,2-Bis[4-(4-aminomethylbenzylaminocarbonyl)-1-piperazinylcarbonyl-1-oxyprop-2-ynyl]-benzene Dihydrochloride] | 3
NCc1ccc(CC(=O)C#CC(N)c2ccc(C(N)C#CC(=O)Cc3ccc(CN)cc3)cc2)cc1 (centres unmarked) [Compound 13, 1,4-Bis-(4-aminomethylbenzylcarbonyl-1-aminoprop-2-ynyl)-benzene Dihydrochloride] | 130
NCc1cccc(CNC(=O)OCC#Cc2ccc(C#CCOC(=O)NCc3cccc(CN)c3)o2)c1 [Compound 9, 2,5-Bis-(3-aminomethylbenzylaminocarbonyl-1-oxyprop-2-ynyl)-furan Dihydrochloride] | 7.5
NCc1cccc(CNC(=O)OCC#Cc2cscc2C#CCOC(=O)NCc2cccc(CN)c2)c1 [Compound 10, 3,4-Bis-(3-aminomethylbenzylaminocarbonyl-1-oxyprop-2-ynyl)-thiophene Dihydrochloride] | 150
NCC1CCC(C(=O)N2CCN(C(=O)OCC#Cc3ccc(C#CCOC(=O)N4CCN(C(=O)C5CCC(CN)CC5)CC4)cc3)CC2)CC1 (stereo not drawn) [Compound 1, 1,4-Bis[4-(trans-4-aminomethylcyclohexylcarbonyl)-1-piperazinylcarbonyl-1-oxyprop-2-ynyl]benzene Dihydrochloride] | 3
NC[C@H]1CC[C@H](C(=O)N2CCN(C(=O)OCC#Cc3ccccc3C#CCOC(=O)N3CCN(C(=O)[C@H]4CC[C@H](CN)CC4)CC3)CC2)CC1 [Compound 3, 1,2-Bis[4-(trans-4-aminomethylcyclohexylcarbonyl)-1-piperazinylcarbonyl-1-oxyprop-2-ynyl]benzene Dihydrochloride] | 200
NCc1ccc(CNC(=O)N2CCN(C(=O)OCC#Cc3cccc(C#CCOC(=O)N4CCN(C(=O)NCc5ccc(CN)cc5)CC4)c3)CC2)cc1 [Compound 2, 1,3-Bis[4-(4-aminomethylbenzylaminocarbonyl)-1-piperazinylcarbonyl-1-oxyprop-2-ynyl]-benzene Dihydrochloride] | 10
NCc1ccc(CC(=O)C#CC(N)c2ccccc2C(N)C#CC(=O)Cc2ccc(CN)cc2)cc1 (centres unmarked) [Compound 14, 1,2-Bis-(4-aminomethylbenzylcarbonyl-1-aminoprop-2-ynyl)-benzene Dihydrochloride] | 330

Results, then the molecule that gave them:

Ki [nM] | SMILES
80 | NCc1ccc(CNC(=O)OCC#Cc2ccc(C#CCOC(=O)NCc3ccc(CN)cc3)o2)cc1 [Compound 8, 2,5-Bis-(4-aminomethylbenzylaminocarbonyl-1-oxyprop-2-ynyl)-furan Dihydrochloride]
300 | NCc1ccc(CNC(=O)OCC#Cc2ccccc2C#CCOC(=O)NCc2ccc(CN)cc2)cc1 [Compound 6, 1,2-Bis-(4-aminomethylbenzylaminocarbonyl-1-oxyprop-2-ynyl)-benzene Dihydrochloride]
120 | NCc1ccc(CNC(=O)OCC#Cc2cscc2C#CCOC(=O)NCc2ccc(CN)cc2)cc1 [Compound 7, 3,4-Bis-(4-aminomethylbenzylaminocarbonyl-1-oxyprop-2-ynyl)-thiophene Dihydrochloride]
30 | NCc1ccc(CNC(=O)COCC#Cc2ccc(C#CCOCC(=O)NCc3ccc(CN)cc3)cc2)cc1 [Compound 11, 1,4-Bis-(4-aminomethylbenzylaminocarbonylmethyl-1-oxyprop-2-ynyl)-benzene Dihydrochloride]
32 | NCc1ccc(CNC(=O)OCC#Cc2cccc(C#CCOC(=O)NCc3ccc(CN)cc3)c2)cc1 [Compound 5, 1,3-Bis-(4-aminomethylbenzylaminocarbonyl-1-oxyprop-2-ynyl)-benzene Dihydrochloride]
13 | NCc1ccc(CNC(=O)COCC#Cc2cccc(C#CCOCC(=O)NCc3ccc(CN)cc3)c2)cc1 [Compound 12, 1,3-Bis-(4-aminomethylbenzylaminocarbonylmethyl-1-oxyprop-2-ynyl)-benzene Dihydrochloride]
